# Legend:
# PTGER2 (EP2) = PTGER2 (EP2) (Homo sapiens (Human), UniProt P43116); experiment: hEP2 b-arrestin assay (PathHunter HEK 293 PTGER2 b-arrestin cells); type: cell-based; settings: antagonistic activity, beta-arrestin assay; read-out: hEP2 b-arr IC50
# Procedure: Plate is pre-incubated 15 minutes at 37° C. Then five microliters of PGE2 (final conc. 5 μM) are transferred into the assay plate. Plate is incubated 120 minutes at 37° C.
# (each concentration is measured in duplicate)
# EP2 = EP2 (Homo sapiens (Human), UniProt P43116); experiment: hEP2 cAMP assay (SF295 glioblastoma cells, HTRF cAMP); type: cell-based; settings: antagonistic activity
# Sequence of EP2 (P43116 whole entry): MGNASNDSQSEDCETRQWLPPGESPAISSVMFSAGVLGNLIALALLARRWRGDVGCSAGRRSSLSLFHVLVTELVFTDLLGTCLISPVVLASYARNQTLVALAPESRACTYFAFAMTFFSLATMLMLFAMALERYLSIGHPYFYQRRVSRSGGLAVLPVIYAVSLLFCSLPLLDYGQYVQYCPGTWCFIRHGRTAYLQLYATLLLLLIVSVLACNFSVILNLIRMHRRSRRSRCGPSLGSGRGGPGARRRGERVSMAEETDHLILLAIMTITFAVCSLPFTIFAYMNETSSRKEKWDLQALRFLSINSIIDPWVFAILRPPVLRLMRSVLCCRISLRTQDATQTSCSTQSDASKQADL
# Summary of the method: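 PGE2-driven cAMP accumulation was measured by HTRF in SF295 cells, which express endogenous EP2 only. Cells in assay buffer with 2 mM IBMX were pre-incubated 45 min at RT, then incubated 30 min at RT. Detection used competition between cellular cAMP and d2-cAMP for a cryptate anti-cAMP antibody.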
# EP4 = EP4 (Homo sapiens (Human), UniProt P35408); experiment: hEP4 cAMP assay (BT549 breast cancer cells, HTRF cAMP); type: cell-based; settings: antagonistic activity, PGE2 6 nM
# Sequence of EP4 (P35408 whole entry): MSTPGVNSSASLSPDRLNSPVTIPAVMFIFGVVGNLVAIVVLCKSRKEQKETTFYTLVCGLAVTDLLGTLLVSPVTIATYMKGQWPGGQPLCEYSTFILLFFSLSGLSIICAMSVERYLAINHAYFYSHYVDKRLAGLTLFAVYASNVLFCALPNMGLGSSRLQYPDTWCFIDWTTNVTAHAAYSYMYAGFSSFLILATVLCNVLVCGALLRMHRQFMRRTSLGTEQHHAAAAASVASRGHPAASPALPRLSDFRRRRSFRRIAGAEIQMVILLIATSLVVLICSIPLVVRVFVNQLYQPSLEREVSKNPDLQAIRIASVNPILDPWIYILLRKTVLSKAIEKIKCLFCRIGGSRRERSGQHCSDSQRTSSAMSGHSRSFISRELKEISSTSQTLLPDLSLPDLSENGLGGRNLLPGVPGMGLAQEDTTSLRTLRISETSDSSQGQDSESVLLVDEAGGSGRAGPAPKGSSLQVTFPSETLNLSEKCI
# Summary of the method: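 cAMP accumulation quantified by HTRF competition between cellular cAMP and d2-labeled cAMP for cryptate anti-cAMP antibody. Cells: endogenously EP4-expressing BT549, buffer with 2 mM IBMX; 45 min RT compound preincubation preceded 30 min RT challenge with PGE2 at 6 nM final.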
# PTGER4 (EP4) = PTGER4 (EP4) (Homo sapiens (Human), UniProt P35408); experiment: cell-based
# Sequence of PTGER4 (EP4) (P35408 whole entry): as above
# From the text: The system is based on the Enzyme Fragment Complementation Technology. Two complementing fragments of the b-galactosidase enzyme are expressed within stably transfected cells. The larger portion of b-gal, termed EA for Enzyme Acceptor, is fused to the C-terminus of b-arrestin 2. The smaller fragment, termed ProLink™ tag, is fused to PTGER2 (EP2) or PTRGER4 (EP4) at the C-terminus. Upon activation, b-arrestin is recruited which forces the interaction of ProLink and EA, allowing complementation of the two fragments of b-gal and the formation of a functional enzyme which is capable of hydrolysing the substrate and generating a chemiluminescent signal.
# Plate is incubated at 37° C., 5% CO2 for 24 hours.
# Stock solutions of test compounds are made at a concentration of 10 mM in DMSO, and serially diluted in DMSO to concentrations required for inhibition dose response curves (tested concentration range 10 μM-2 nM or 1 μM-0.2 nM).
# Five microliters of diluted compounds are transferred into the assay plate. Plate is pre-incubated 15 minutes at 37° C. Then five microliters of PGE2 (final conc. 20 nM) are transferred into the assay plate. Plate is incubated 120 minutes at 37° C.
# Twelve I of reagent are transferred to the assay plate and incubate for 1 hour at RT in the dark. Luminescence counts are read on a BMG Fluostar Optima reader according to manufacturer's instructions.
# For each compound concentration calculate of the percentage of activity compared to DMSO control value as average ±STDEV. (each concentration is measured in duplicate)
# Sequence of PTGER2 (EP2) (P43116 whole entry): as the sequence (P43116 whole entry) above
IC50 (PTGER2 (EP2)) [nM],IC50 (EP2) [nM],IC50 (EP4) [nM],IC50 (PTGER4 (EP4)) [nM],Structure (SMILES)
112,77,287,609,"CSc1cc(-c2cc(NCCc3ccc4ccoc4c3)ncn2)ccc1C(=O)O [Ex 250, 4-[6-(2-Benzofuran-6-yl-ethylamino)-pyrimidin-4-yl]-2-methylsulfanyl-benzoic acid]"
45,70,379,864,"CCOc1cc(-c2cc(NCCc3cc4ccsc4cc3C)ncn2)ccc1C(=O)O [Ex 254, 2-Ethoxy-4-{6-[2-(6-methyl-benzo[b]thiophen-5-yl)-ethylamino]-pyrimidin-4-yl}-benzoic acid]"
53,20,406,396,"CCOc1cc2c(cc1CCNc1cc(-c3ccc(C(=O)O)c(OCC)c3)ncn1)OCCO2 [Ex 261, 2-Ethoxy-4-{6-[2-(7-ethoxy-2,3-dihydro-benzo[1,4]dioxin-6-yl)-ethylamino]-pyrimidin-4-yl}-benzoic acid]"
79,47,474,1820,"COc1cc2sccc2cc1CCNc1cc(-c2ccc(C(=O)O)cc2)ncn1 [Ex 276, 4-{6-[2-(6-Methoxy-benzo[b]thiophen-5-yl)-ethylamino]-pyrimidin-4-yl}-benzoic acid]"
51,14,324,437,"COc1cc2c(cc1CCNc1cc(-c3ccc(C(=O)O)c(SC)c3)ncn1)OCO2 [Ex 277, 4-{6-[2-(6-Methoxy-benzo[1,3]dioxol-5-yl)-ethylamino]-pyrimidin-4-yl}-2-methylsulfanyl-benzoic acid]"
163,194,527,438,CCOc1cc(-c2cc(NCCc3cc4ccsc4cc3C)ncn2)ccc1CC(=O)O [Ex 290]
307,250,444,367,CCOc1cc(-c2cc(NCCc3cc4c(cc3OC)OCO4)ncn2)ccc1CC(=O)O [Ex 299]
438,114,835,1900,COc1cc2c(cc1CCNc1cc(-c3ccc4c(C(=O)O)c[nH]c4c3)ncn1)OCCO2 [Ex 323]
287,108,938,919,"CSc1cc(-c2cc(NCCc3ccc4cc[nH]c4c3)ncn2)ccc1C(=O)O [Ex 328, 4-{6-[2-(1H-Indol-6-yl)-ethylamino]-pyrimidin-4-yl}-2-methylsulfanyl-benzoic acid]"
664,1310,1430,1320,C=C(C(=O)O)c1ccc(-c2cc(NCCc3cc4c(cc3OC)OCCO4)ncn2)cc1 [Ex 337]
21,12,5,14,"CCOc1cc(-c2cc(NCCc3ccc4ccccc4c3C)ncn2)sc1C(=O)O [Example 7, 3-Ethoxy-5-{6-[2-(1-methyl-naphthalen-2-yl)-ethylamino]-pyrimidin-4-yl}-thiophene-2-carboxylic acid]"
66,90,22,10,"CCOc1cc(-c2cc(NCCc3ccc4[nH]ccc4c3)ncn2)sc1-c1noc(=O)[nH]1 [Example 339, 3-(3-Ethoxy-5-{6-[2-(1H-indol-5-yl)-ethylamino]-pyrimidin-4-yl}-thiophen-2-yl)-[1,2,4]oxadiazol-5(4H)-one]"
12,104,11,3,"CCOc1cc(-c2cc(NCCc3ccc4sccc4c3)ncn2)sc1-c1noc(=O)[nH]1 [Example 340, 3-{5-[6-(2-Benzo[b]thiophen-5-yl-ethylamino)-pyrimidin-4-yl]-3-ethoxy-thiophen-2-yl}-[1,2,4]oxadiazol-5(4H)-one]"
12,41,36,14,"CCOc1cc(-c2cc(NCCc3cc4c(cc3C)OCCO4)ncn2)sc1-c1noc(=O)[nH]1 [Example 341, 3-(3-Ethoxy-5-{6-[2-(7-methyl-2,3-dihydro-benzo[1,4]dioxin-6-yl)-ethylamino]-pyrimidin-4-yl}-thiophen-2-yl)-[1,2,4]oxadiazol-5(4H)-one]"
7,20,19,3,"CCOc1cc(-c2cc(NCCc3cc4ccsc4cc3OC)ncn2)sc1-c1noc(=O)[nH]1 [Example 342, 3-(3-Ethoxy-5-{6-[2-(6-methoxy-benzo[b]thiophen-5-yl)-ethylamino]-pyrimidin-4-yl}-thiophen-2-yl)-[1,2,4]oxadiazol-5(4H)-one]"
9,23,12,2,"CCOc1cc(-c2cc(NCCc3ccc4cc[nH]c4c3)ncn2)sc1-c1noc(=O)[nH]1 [Example 343, 3-(3-Ethoxy-5-{6-[2-(1H-indol-6-yl)-ethylamino]-pyrimidin-4-yl}-thiophen-2-yl)-[1,2,4]oxadiazol-5(4H)-one]"
33,33,14,39,"CCOc1cc(-c2cc(NCCc3ccc4c(c3)OCO4)ncn2)sc1-c1noc(=O)[nH]1 [Example 344, 3-{5-[6-(2-Benzo[1,3]dioxol-5-yl-ethylamino)-pyrimidin-4-yl]-3-ethoxy-thiophen-2-yl}-[1,2,4]oxadiazol-5(4H)-one]"
172,113,8,2,"CCOc1cc(-c2cc(NCCc3cc4cccnc4cc3F)ncn2)sc1-c1noc(=O)[nH]1 [Example 348, 3-(3-Ethoxy-5-{6-[2-(7-fluoro-quinolin-6-yl)-ethylamino]-pyrimidin-4-yl}-thiophen-2-yl)-[1,2,4]oxadiazol-5(4H)-one]"
109,103,14,4,"CCOc1cc(-c2cc(NCCc3cc4cccnc4cc3F)ncn2)sc1-c1nnn[nH]1 [Example 349, {6-[4-Ethoxy-5-(1H-tetrazol-5-yl)-thiophen-2-yl]-pyrimidin-4-yl}-[2-(7-fluoro-quinolin-6-yl)-ethyl]-amine]"
83,51,10,21,"CCOc1nc(-c2cc(NCCc3ccc4ccccc4c3C)ncn2)sc1C(=O)O [Example 350, 4-Ethoxy-2-{6-[2-(1-methyl-naphthalen-2-yl)-ethylamino]-pyrimidin-4-yl}-thiazole-5-carboxylic acid]"
475,236,167,79,"CCc1nc(-c2cc(NCCc3ccc4ccccc4c3C)ncn2)sc1C(=O)O [Example 351, 4-Ethyl-2-{6-[2-(1-methyl-naphthalen-2-yl)-ethylamino]-pyrimidin-4-yl}-thiazole-5-carboxylic acid]"
42,142,24,5,"CCOc1nc(-c2cc(NCCc3ccc4ccccc4c3C)ncn2)sc1-c1noc(=O)[nH]1 [Example 352, 3-(4-Ethoxy-2-{6-[2-(1-methyl-naphthalen-2-yl)-ethylamino]-pyrimidin-4-yl}-thiazol-5-yl)-[1,2,4]oxadiazol-5(4H)-one]"

# Source: patent publication US11839613B2, “Pyrimidine derivatives as PGE2 receptor modulators” (IDORSIA PHARMACEUTICALS LTD, priority 2017, dated 2023)
